Columns and labels:
Caspase-1 = target: T1, Caspase-1 (Homo sapiens, UniProt P29466); parameters: species or system Escherichia coli;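 further: Caspase-1 enzyme inhibition assay with a peptide substrate; in other assays of this panel Not Active means under 50% inhibition at 10 µM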
T1 sequence (P29466 whole entry): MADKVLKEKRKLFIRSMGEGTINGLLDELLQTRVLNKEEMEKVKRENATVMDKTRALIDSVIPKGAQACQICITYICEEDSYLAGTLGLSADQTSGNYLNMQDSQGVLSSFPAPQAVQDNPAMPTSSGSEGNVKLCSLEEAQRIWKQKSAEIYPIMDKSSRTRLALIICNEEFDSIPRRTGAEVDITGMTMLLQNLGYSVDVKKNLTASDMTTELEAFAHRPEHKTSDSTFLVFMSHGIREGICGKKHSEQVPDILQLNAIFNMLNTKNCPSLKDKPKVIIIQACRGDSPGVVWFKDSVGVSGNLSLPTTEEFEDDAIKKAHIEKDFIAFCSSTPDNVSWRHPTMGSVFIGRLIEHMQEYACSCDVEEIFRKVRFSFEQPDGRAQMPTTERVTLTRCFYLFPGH

[1] = target: Matrix metalloproteinase-9 (Homo sapiens, UniProt P14780); assay: biochemical; type: cell-based;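 further: inhibition of isolated MMP-9 enzyme activity toward a synthetic peptide substrate, from the DrugMatrix protease screening panel; in other assays of this panel Not Active means under 50% inhibition at 10 µM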
[2] = DRUGMATRIX: Phorbol Ester radioligand binding (ligand: [3H] PDBu); type: cell membranes, Mus musculus, ICR, Brain, Membrane; settings: Not Active = under 50% inhibition at 10 µM
[3] = DRUGMATRIX: Phosphodiesterase PDE4 enzyme inhibition (substrate: [3H]cAMP + cAMP); settings: u-937; Not Active = under 50% inhibition at 10 µM
Estrogen receptor = target: T2, Estrogen receptor (Homo sapiens, UniProt P03372); settings: sf9; further: in other assays of this panel Not Active means under 50% inhibition at 10 µM
T2 sequence (P03372 whole entry): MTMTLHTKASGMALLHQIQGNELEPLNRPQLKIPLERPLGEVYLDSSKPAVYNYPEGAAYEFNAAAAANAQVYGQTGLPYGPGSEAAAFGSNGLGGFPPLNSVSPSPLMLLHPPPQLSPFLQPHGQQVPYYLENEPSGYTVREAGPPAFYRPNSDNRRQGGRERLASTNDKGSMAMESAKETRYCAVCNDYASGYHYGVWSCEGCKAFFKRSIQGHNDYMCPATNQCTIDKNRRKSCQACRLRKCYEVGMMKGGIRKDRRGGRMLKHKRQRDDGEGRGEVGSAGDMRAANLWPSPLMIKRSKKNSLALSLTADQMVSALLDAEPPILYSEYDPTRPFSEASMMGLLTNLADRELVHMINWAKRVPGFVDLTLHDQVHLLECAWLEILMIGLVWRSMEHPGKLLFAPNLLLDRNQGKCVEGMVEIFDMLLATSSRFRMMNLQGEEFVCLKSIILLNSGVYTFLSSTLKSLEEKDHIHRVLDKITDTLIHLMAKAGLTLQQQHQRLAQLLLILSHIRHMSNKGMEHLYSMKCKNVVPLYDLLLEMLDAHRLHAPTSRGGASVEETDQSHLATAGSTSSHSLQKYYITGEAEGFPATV

Cytochrome P450 1A2 = target: T3, Cytochrome P450 1A2 (Homo sapiens, UniProt P05177); settings: bti-tn-5b1-4; further: in other assays of this panel Not Active means under 50% inhibition at 10 µM
T3 sequence (P05177 whole entry): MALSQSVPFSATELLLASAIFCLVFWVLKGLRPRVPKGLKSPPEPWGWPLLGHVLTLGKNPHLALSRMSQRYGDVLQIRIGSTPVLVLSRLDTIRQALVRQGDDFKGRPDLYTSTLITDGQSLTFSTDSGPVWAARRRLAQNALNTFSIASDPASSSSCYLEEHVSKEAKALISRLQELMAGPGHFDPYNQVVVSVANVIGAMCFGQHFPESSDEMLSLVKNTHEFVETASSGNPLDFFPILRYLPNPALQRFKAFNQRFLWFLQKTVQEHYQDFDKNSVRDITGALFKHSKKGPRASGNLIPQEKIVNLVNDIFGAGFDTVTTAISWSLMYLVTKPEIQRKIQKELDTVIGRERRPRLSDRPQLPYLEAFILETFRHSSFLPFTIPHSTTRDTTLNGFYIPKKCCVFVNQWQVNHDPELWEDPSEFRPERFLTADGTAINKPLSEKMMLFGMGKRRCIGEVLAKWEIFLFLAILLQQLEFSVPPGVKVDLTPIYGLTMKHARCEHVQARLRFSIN

[4] = DRUGMATRIX: Glutamate, NMDA, Agonism radioligand binding (ligand: [3H] CGP-39653); type: cell membranes, Rattus norvegicus, Wistar, Cerebral cortex, Membrane; settings: Not Active = under 50% inhibition at 10 µM
[5] = DRUGMATRIX: beta-Lactamase enzyme inhibition (substrate: Nitrocefin); parameters: species or system Bacillus cereus; settings: Not Active = under 50% inhibition at 10 µM
[6] = DRUGMATRIX: Purinergic P2X radioligand binding (ligand: [3H] alpha, beta-Methylene-ATP); type: cell membranes, Oryctolagus cuniculus, New Zealand albino, Urinary bladder, Membrane; settings: Not Active = under 50% inhibition at 10 µM

Chain of Matrix metalloproteinase-9 (P14780 whole entry): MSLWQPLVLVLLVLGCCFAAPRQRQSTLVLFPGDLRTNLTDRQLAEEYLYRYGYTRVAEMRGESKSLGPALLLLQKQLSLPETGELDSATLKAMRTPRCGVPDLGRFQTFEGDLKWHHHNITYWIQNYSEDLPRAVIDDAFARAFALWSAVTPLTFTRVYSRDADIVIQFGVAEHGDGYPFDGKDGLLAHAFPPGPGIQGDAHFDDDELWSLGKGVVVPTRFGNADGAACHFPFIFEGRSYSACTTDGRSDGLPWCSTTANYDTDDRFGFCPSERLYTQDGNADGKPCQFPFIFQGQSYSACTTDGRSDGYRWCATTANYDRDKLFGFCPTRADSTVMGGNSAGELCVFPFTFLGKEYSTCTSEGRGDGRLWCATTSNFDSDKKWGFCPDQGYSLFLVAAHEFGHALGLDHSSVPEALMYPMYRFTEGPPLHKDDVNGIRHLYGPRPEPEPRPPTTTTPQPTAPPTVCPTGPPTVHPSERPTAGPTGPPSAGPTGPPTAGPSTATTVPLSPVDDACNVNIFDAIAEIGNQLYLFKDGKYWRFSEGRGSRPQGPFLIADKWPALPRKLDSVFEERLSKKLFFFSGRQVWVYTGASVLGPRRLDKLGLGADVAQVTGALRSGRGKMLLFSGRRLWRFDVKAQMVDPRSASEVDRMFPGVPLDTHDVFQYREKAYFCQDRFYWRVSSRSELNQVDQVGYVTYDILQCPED

C=C(CC)C(=O)c1ccc(OCC(=O)O)c(Cl)c1Cl [ETHACRYNIC ACID]
Not Active: IC50 (Caspase-1) | IC50 [1] | IC50 [2] | Ki [2] | IC50 [3] | Ki [3] | IC50 (Estrogen receptor) | IC50 (Cytochrome P450 1A2) | Ki (Cytochrome P450 1A2) | IC50 [4] | Ki [4] | IC50 [5] | Ki [5] | IC50 [6] | Ki [6]

OCCO [ETHYLENE GLYCOL]
Not Active: IC50 (Caspase-1) | IC50 [1] | IC50 [2] | Ki [2] | IC50 [3] | Ki [3] | IC50 (Estrogen receptor) | IC50 (Cytochrome P450 1A2) | Ki (Cytochrome P450 1A2) | IC50 [4] | Ki [4] | IC50 [5] | Ki [5] | IC50 [6] | Ki [6]

CC(=O)OCC(CCn1cnc2cnc(N)nc21)COC(C)=O [FAMCICLOVIR]
Not Active: IC50 (Caspase-1) | IC50 [1] | IC50 [2] | Ki [2] | IC50 [3] | Ki [3] | IC50 (Estrogen receptor) | IC50 (Cytochrome P450 1A2) | Ki (Cytochrome P450 1A2) | IC50 [4] | Ki [4] | IC50 [5] | Ki [5] | IC50 [6] | Ki [6]

O=C(O)Cc1ccc(-c2ccccc2)cc1 [FELBINAC]
Not Active: IC50 (Caspase-1) | IC50 [1] | IC50 [2] | Ki [2] | IC50 [3] | Ki [3] | IC50 (Estrogen receptor) | IC50 (Cytochrome P450 1A2) | Ki (Cytochrome P450 1A2) | IC50 [4] | Ki [4] | IC50 [5] | Ki [5] | IC50 [6] | Ki [6]

CC(C(=O)O)c1ccc(-c2ccccc2)c(F)c1 (stereo not given) [FLURBIPROFEN]
Not Active: IC50 (Caspase-1) | IC50 [1] | IC50 [2] | Ki [2] | IC50 [3] | Ki [3] | IC50 (Estrogen receptor) | IC50 (Cytochrome P450 1A2) | Ki (Cytochrome P450 1A2) | IC50 [4] | Ki [4] | IC50 [5] | Ki [5] | IC50 [6] | Ki [6]

NC[C@@H]1O[C@H](O[C@H]2[C@@H](O)[C@H](O[C@@H]3[C@@H](O)[C@H](N)C[C@H](N)[C@H]3O[C@H]3O[C@H](CN)[C@@H](O)[C@H](O)[C@H]3N)O[C@@H]2CO)[C@H](N)[C@@H](O)[C@@H]1O [FRAMYCETIN]
Not Active: IC50 (Caspase-1) | IC50 [1] | IC50 [2] | Ki [2] | IC50 [3] | Ki [3] | IC50 (Estrogen receptor) | IC50 (Cytochrome P450 1A2) | Ki (Cytochrome P450 1A2) | IC50 [4] | Ki [4] | IC50 [5] | Ki [5] | IC50 [6] | Ki [6]

C[C@H]([C@](O)(Cn1cncn1)c1ccc(F)cc1F)S(C)(=O)=O [GENACONAZOLE]
Not Active: IC50 (Caspase-1) | IC50 [1] | IC50 [2] | Ki [2] | IC50 [3] | Ki [3] | IC50 (Estrogen receptor) | IC50 (Cytochrome P450 1A2) | Ki (Cytochrome P450 1A2) | IC50 [4] | Ki [4] | IC50 [5] | Ki [5] | IC50 [6] | Ki [6]

Cc1c(F)c(N2CCNC(C)C2)cc2c1c(=O)c(C(=O)O)cn2C1CC1 (stereo not given) [GREPAFLOXACIN]
Not Active: IC50 (Caspase-1) | IC50 [1] | IC50 [2] | Ki [2] | IC50 [3] | Ki [3] | IC50 (Estrogen receptor) | IC50 (Cytochrome P450 1A2) | Ki (Cytochrome P450 1A2) | IC50 [4] | Ki [4] | IC50 [5] | Ki [5] | IC50 [6] | Ki [6]

N=C(N)N/N=C/c1c(Cl)cccc1Cl [GUANABENZ]
Not Active: IC50 (Caspase-1) | IC50 [1] | IC50 [2] | Ki [2] | IC50 [3] | Ki [3] | IC50 (Estrogen receptor) | IC50 (Cytochrome P450 1A2) | Ki (Cytochrome P450 1A2) | IC50 [4] | Ki [4] | IC50 [5] | Ki [5] | IC50 [6] | Ki [6]

CC[C@H](C)C(=O)O[C@H]1C[C@@H](C)C=C2C=C[C@H](C)[C@H](CC[C@@H]3C[C@@H](O)CC(=O)O3)[C@H]21 [LOVASTATIN]
Not Active: IC50 (Caspase-1) | IC50 [1] | IC50 [2] | Ki [2] | IC50 [3] | Ki [3] | IC50 (Estrogen receptor) | IC50 (Cytochrome P450 1A2) | Ki (Cytochrome P450 1A2) | IC50 [4] | Ki [4] | IC50 [5] | Ki [5] | IC50 [6] | Ki [6]

CC(C(=O)O)c1ccc(CC2CCCC2=O)cc1 (stereo not given) [LOXOPROFEN]
Not Active: IC50 (Caspase-1) | IC50 [1] | IC50 [2] | Ki [2] | IC50 [3] | Ki [3] | IC50 (Estrogen receptor) | IC50 (Cytochrome P450 1A2) | Ki (Cytochrome P450 1A2) | IC50 [4] | Ki [4] | IC50 [5] | Ki [5] | IC50 [6] | Ki [6]

From ChEMBL document CHEMBL1909046, “DrugMatrix in vitro pharmacology data”
